Like-named read-outs stand apart in the source and are kept apart here. A value given as a limit tells only on which side of the number the result lay.

Common to all, as to format: biochemical
Assay [1] has as its target T1, DYRK2 (Homo sapiens, UniProt Q92630).
T1 construct: purchased Carna Biosciences, Inc. 04-132
T1 sequence (Q92630 74-601 limits assumed): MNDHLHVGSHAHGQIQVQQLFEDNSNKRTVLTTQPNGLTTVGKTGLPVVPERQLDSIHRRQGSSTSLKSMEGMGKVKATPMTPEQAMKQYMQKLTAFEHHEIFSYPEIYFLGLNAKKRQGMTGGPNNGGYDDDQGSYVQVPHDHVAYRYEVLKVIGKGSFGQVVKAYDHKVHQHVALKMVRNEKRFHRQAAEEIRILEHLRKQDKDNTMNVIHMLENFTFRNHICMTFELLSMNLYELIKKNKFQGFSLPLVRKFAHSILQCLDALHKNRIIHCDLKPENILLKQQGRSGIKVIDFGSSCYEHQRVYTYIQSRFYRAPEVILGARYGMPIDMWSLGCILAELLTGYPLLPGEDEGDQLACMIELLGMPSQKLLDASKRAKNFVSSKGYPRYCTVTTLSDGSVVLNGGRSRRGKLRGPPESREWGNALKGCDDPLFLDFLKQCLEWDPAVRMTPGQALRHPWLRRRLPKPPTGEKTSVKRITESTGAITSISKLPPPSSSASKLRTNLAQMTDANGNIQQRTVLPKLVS
As to the kind of experiment: Inhibition test on activity of DYRK family, mobility shift assay (MSA): DYRK2. In short, it runs like this:
(§1)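 Mobility-shift readout of FITC-DYRKtide phosphorylation in 20 mM HEPES pH 7.5. The substrate mix held 4 µM peptide, 20 mM MgCl2 and ATP at 100 (1A), 200 (1B), 40 (2) or 20 µM (3). Reaction 1 h at room temperature; IC50 from regression of P/(P+S)-based inhibition vs log concentration.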

Assay [2] deals with T2, DYRK1A (Homo sapiens, UniProt Q13627).
T2 construct: purchased Carna Biosciences, Inc. 04-130
Kind of assay: Inhibition test on activity of DYRK family, mobility shift assay (MSA): DYRK1A. Put shortly: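 Mobility shift assay with recombinant DYRK1A (0.2 ng/μL enzyme solution), FITC-DYRKtide substrate (4 μM in substrate mix), 100 μM ATP in substrate mix, HEPES pH 7.5 buffer with MgCl2; 1 h at room temperature. Phosphorylated vs unphosphorylated peptide peaks quantified; IC50 from regression of inhibition rate against log concentration.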

In assay [3] the target is T3, DYRK3 (Homo sapiens, UniProt O43781).
T3 construct: purchased Carna Biosciences, Inc. 04-133
T3 sequence (O43781 1-568 isoform O43781-2): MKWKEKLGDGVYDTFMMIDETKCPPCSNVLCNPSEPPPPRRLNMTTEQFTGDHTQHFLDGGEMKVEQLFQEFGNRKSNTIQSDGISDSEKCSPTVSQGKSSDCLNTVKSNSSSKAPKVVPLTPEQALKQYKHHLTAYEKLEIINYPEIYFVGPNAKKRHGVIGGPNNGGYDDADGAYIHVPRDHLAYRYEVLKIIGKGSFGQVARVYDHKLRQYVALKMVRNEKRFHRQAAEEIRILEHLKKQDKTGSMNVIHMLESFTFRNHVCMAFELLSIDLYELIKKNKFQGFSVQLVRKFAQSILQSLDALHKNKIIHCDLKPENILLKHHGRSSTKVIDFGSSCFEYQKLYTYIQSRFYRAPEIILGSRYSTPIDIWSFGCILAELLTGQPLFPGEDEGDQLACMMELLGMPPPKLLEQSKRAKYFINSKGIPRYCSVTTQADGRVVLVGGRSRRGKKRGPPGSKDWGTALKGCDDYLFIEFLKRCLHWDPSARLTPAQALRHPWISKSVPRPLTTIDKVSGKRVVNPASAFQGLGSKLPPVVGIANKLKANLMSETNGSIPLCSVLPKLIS
As to the kind of experiment: Inhibition test on activity of DYRK family, mobility shift assay (MSA): DYRK3. Put shortly:
as §1

The target of assay [4] is T4, DYRK1B (Homo sapiens, UniProt Q9Y463).
T4 construct: purchased Carna Biosciences, Inc. 04-131
T4 sequence (Q9Y463 whole entry): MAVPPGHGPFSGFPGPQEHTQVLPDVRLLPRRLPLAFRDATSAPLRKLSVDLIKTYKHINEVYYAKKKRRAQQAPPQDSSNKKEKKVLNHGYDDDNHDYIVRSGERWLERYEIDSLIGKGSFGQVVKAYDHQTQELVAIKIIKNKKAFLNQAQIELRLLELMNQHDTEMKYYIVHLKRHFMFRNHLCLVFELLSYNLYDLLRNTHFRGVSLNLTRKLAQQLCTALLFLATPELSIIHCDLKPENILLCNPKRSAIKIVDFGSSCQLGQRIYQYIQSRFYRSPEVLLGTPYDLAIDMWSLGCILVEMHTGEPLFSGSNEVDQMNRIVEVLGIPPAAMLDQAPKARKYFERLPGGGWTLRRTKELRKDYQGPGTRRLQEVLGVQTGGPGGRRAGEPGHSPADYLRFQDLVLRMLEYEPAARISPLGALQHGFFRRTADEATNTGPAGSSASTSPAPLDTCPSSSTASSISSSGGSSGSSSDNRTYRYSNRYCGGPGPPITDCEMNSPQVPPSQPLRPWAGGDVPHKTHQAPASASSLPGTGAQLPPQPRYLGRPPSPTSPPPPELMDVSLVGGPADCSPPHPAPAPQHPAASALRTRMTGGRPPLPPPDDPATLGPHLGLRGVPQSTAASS
Kind of assay: Inhibition test on activity of DYRK family, mobility shift assay (MSA): DYRK1B. As for the experimental part:
[Inhibition Test on Activity of DYRK Family (DYRK1A, DYRK1B, DYRK2, and DYRK3)]
The kinase activity was measured by mobility shift assay (MSA) method using QuickScout Screening Assist™ MSA (commercially available kit manufactured by Carna Biosciences, Inc.). The substrate of the kinase reaction used was an FITC-labeled DYRKtide peptide included in the kit. An assay buffer [20 mM HEPES, 0.01% Triton X-100™, 2 mM dithiothreitol, pH 7.5]was used to create a substrate mixture solution with a substrate (4 μM), MgCl2(20 mM), and ATP (DYRK1A: 100 μM; DYRK1B: 200 μM; DYRK2: 40 μM; and DYRK3: 20 μM). In addition, kinases (DYRK1A: manufactured by Carna Biosciences, Inc., Cat. No. 04-130; DYRK1B: manufactured by Carna Biosciences, Inc., Cat. No. 04-131; DYRK2; manufactured by Carna Biosciences, Inc., Cat. No. 04-132; and DYRK3; manufactured by Carna Biosciences, Inc., Cat. No. 04-133) were diluted with the assay buffer to prepare enzyme solutions (DYRK1A: 0.2 ng/μL; DYRK1B: 0.08 ng/μL; DYRK2: 0.04 ng/μL; and DYRK3: 0.25 ng/μL). The 10 mM solution of the test compound in DMSO was further diluted with DMSO to 10 levels of the concentration (0.00003 mM, 0.0001 mM, 0.0003 mM, 0.001 mM, 0.003 mM, 0.01 mM, 0.03 mM, 0.1 mM, 0.3 mM, and 1 mM), each of which was subjected to 25-fold dilution with the assay buffer to obtain a drug solution (4% DMSO solution). 5 μL of the drug solution or a control solution (4% DMSO-assay buffer), 5 μL of the substrate mixture solution, and 10 μL of the enzyme solution were mixed in the wells of a polypropylene 384-well plate and allowed to react at room temperature for 1 hour, and then the reaction was quenched by adding 60 μL of the termination buffer included in the kit. Subsequently, the quantities of the substrates (S) and the phosphorylated substrate (P) in the reaction solution were measured using LabChip EZ Reader II system (manufactured by Caliper Life Sciences) according to the protocol of the assay kit.
The heights of the peaks of the “substrate” and the “phosphorylated substrate” were expressed as S and P, respectively, and a blank containing the assay buffer instead of the enzyme solution was also measured.
The inhibition rate (%) of the test compound was calculated according to the following equation:
Inhibition rate (%)=(1−(C−A)/(B−A))×100 • wherein, A, B, and C represent P/(P+S) of the blank well, P/(P+S) of the control solution well, and P/(P+S) of the compound-containing well, respectively.
The IC50 value was calculated via a regression analysis of the inhibition rate and the test compound concentration (logarithmic value).
The inhibiting activities of representative compounds of the present invention are shown against DYRK1A, DYRK1B, DYRK2, and DYRK3 in Tables.

The mark [5] stands for this setting: MSA, FITC-labeled DYRKtide peptide, ATP 40 μM, read-out: Inhibitory activity DYRK 2 (IC50 class).
Setting [6] is: MSA, FITC-labeled DYRKtide peptide, ATP 100 μM, read-out: Inhibitory activity DYRK 1A (IC50 class).
[7] abbreviates: MSA, FITC-labeled DYRKtide peptide, ATP 20 μM, read-out: Inhibitory activity DYRK 3 (IC50 class).
Where [8] appears, read: MSA, FITC-labeled DYRKtide peptide, ATP 200 μM, read-out: Inhibitory activity DYRK 1B (IC50 class).

`N#CCN1CC[C@@H]2NC(=O)N(c3nc4c5c(ccc4s3)OCC5)[C@@H]2C1` (racemic) [Example 100, rac-[(3aR,7aS)-3-(7,8-dihydrofuro[3,2-e][1,3]benzothiazol-2-yl)-2-oxooctahydro-5H-imidazo[4,5-c]pyridin-5-yl]acetonitrile]: the IC50 is ≥ 1000 nM in assay [1] (read-out: Inhibitory activity DYRK 2), < 10 nM in assay [2] (read-out: Inhibitory activity DYRK 1A), ≥ 1000 nM in assay [3] (read-out: Inhibitory activity DYRK 3) and 10 to 100 nM in assay [4] (read-out: Inhibitory activity DYRK 1B).

On to `CN1CC[C@@H]2NC(=O)N(c3nc4c5c(ccc4s3)OCC5)[C@@H]2C1` (relative stereo) [Example 7, cis-3-(7,8-Dihydrofuro[3,2-e][1,3]benzothiazol-2-yl)-5-methyloctahydro-2H-imidazo[4,5-c]pyridin-2-one], for which the IC50 in assay [1] (setting [5]) was ≥ 1000 nM; in assay [2] (setting [6]), 10 to 100 nM; in assay [3] (setting [7]), ≥ 1000 nM; in assay [4] (setting [8]), 10 to 100 nM.

For `COCCN1CC[C@@H]2NC(=O)N(c3nc4c5c(ccc4s3)OCC5)[C@@H]2C1` (relative stereo) [Example 8, cis-3-(7,8-Dihydrofuro[3,2-e][1,3]benzothiazol-2-yl)-5-(2-methoxyethyl)octahydro-2H-imidazo[4,5-c]pyridin-2-one], the IC50 was ≥ 1000 nM in assay [1] (setting [5]), 10 to 100 nM in assay [2] (setting [6]), ≥ 1000 nM in assay [3] (setting [7]) and 10 to 100 nM in assay [4] (setting [8]).

Consider `CN1CC[C@@H]2[C@H](C1)NC(=O)N2c1nc2c3c(ccc2s1)OCC3` (relative stereo) [Example 9, cis-1-(7,8-dihydrofuro[3,2-e][1,3]benzothiazol-2-yl)-5-methyloctahydro-2H-imidazo[4,5-c]pyridin-2-one], for which the IC50 in assay [1] (setting [5]) was 100 to 1000 nM; in assay [2] (setting [6]), 10 to 100 nM; in assay [3] (setting [7]) it was 100 to 1000 nM; in assay [4] (setting [8]) it was 10 to 100 nM.

As for `CCN1CC[C@H]2NC(=O)N(c3nc4c5c(ccc4s3)OCC5)[C@H]2C1` (relative stereo) [Example 11, cis-3-(7,8-dihydrofuro[3,2-e][1,3]benzothiazol-2-yl)-5-ethyloctahydro-2H-imidazo[4,5-c]pyridin-2-one], the IC50 in assay [1] (setting [5]) was ≥ 1000 nM; in assay [2] (setting [6]) it was 10 to 100 nM; in assay [3] (setting [7]), ≥ 1000 nM; in assay [4] (setting [8]), 10 to 100 nM.

Take `CN1C[C@H]2NC(=O)N(c3nc4c5c(ccc4s3)OCC5)[C@H]2C1` (relative stereo) [Example 14, cis-1-(7,8-dihydrofuro[3,2-e][1,3]benzothiazol-2-yl)-5-methylhexahydropyrrolo[3,4-d]imidazol-2(1H)-one]: the IC50 lay within 100 to 1000 nM in assay [1] (setting [5]), 10 to 100 nM in assay [2] (setting [6]), 10 to 100 nM in assay [3] (setting [7]) and 10 to 100 nM in assay [4] (setting [8]).

Take `CN1CC[C@H]2NC(=O)N(c3nc4c5c(ccc4s3)OCC5)[C@H]2C1` (single isomer, unassigned) [Example 27]: the IC50 in assay [1] (setting [5]), in assay [2] (setting [6]), in assay [3] (setting [7]) and in assay [4] (setting [8]) was ≥ 1000 nM throughout.

Turning to `CN1CC[C@@H]2NC(=O)N(c3nc4c5c(ccc4s3)OCC5)[C@@H]2C1` (single isomer, unassigned) [Example 28], the IC50 in assay [1] (setting [5]) was ≥ 1000 nM; in assay [2] (setting [6]) it was 10 to 100 nM; in assay [3] (setting [7]) it was ≥ 1000 nM; in assay [4] (setting [8]), 10 to 100 nM.

For the compound `O=C1N[C@H]2CCN(C3CC3)C[C@H]2N1c1nc2c3c(ccc2s1)OCCO3` (single isomer, unassigned) [Example 34], the IC50 in assay [1] (setting [5]) was ≥ 1000 nM; in assay [2] (setting [6]), < 10 nM; in assay [3] (setting [7]) it was ≥ 1000 nM; in assay [4] (setting [8]) it was 10 to 100 nM.

For `O=C1N[C@H]2CCN(C3CC3)C[C@H]2N1c1nc2c3c(ccc2s1)OCO3` (single isomer, unassigned) [Example 36], the IC50 in assay [1] (setting [5]) is ≥ 1000 nM; in assay [2] (setting [6]), < 10 nM; in assay [3] (setting [7]) it was ≥ 1000 nM; in assay [4] (setting [8]), < 10 nM.

With `O=C1NC2CNCC2N1c1nc2c3c(ccc2s1)OCC3` (stereo not drawn) [Example 3], the IC50 in assay [1] (setting [5]) was ≥ 1000 nM; in assay [2] (setting [6]) it was 100 to 1000 nM; in assay [3] (setting [7]) it was 100 to 1000 nM; in assay [4] (setting [8]) it was 100 to 1000 nM.

For `C[C@@H]1NC(=O)N(c2nc3c4c(ccc3s2)OCC4)[C@@H]1CN1CCOCC1` [Example 23, (4S,5R)-1-(7,8-dihydrofuro[3,2-e][1,3]benzothiazol-2-yl)-4-methyl-5-[(morpholin-4-yl)methyl]imidazolidin-2-one], the IC50 in assay [1] (setting [5]) was 100 to 1000 nM; in assay [2] (setting [6]), < 10 nM; in assay [3] (setting [7]), 100 to 1000 nM; in assay [4] (setting [8]), < 10 nM.

`O=C1N[C@H]2CO[C@H](CO)[C@H]2N1c1nc2c3c(ccc2s1)OCC3` [Example 157, (3aR,6S,6aS)-1-(7,8-dihydrofuro[3,2-e][1,3]benzothiazol-2-yl)-6-(hydroxymethyl)tetrahydro-1H-furo[3,4-d]imidazol-2(3H)-one]: the IC50 in assay [1] (setting [5]) lay within 100 to 1000 nM; in assay [3] (setting [7]) it was 100 to 1000 nM; in assay [4] (setting [8]) it was 10 to 100 nM.

With `N#CC[C@H]1OC[C@@H]2NC(=O)N(c3nc4c5c(ccc4s3)OCC5)[C@@H]21` [Example 162, [(3aS,4R,6aR)-3-(7,8-Dihydrofuro[3,2-e][1,3]benzothiazol-2-yl)-2-oxohexahydro-1H-furo[3,4-d]imidazol-4-yl]acetonitrile], the values for the IC50 in assay [1] (setting [5]), in assay [3] (setting [7]) and in assay [4] (setting [8]) were 100 to 1000 nM, 100 to 1000 nM and 10 to 100 nM, respectively.

Values taken from US20230365589A1, “NOVEL AMINE DERIVATIVES” (Sumitomo Pharma Co., Ltd., priority 2020, published 2023).
